Test results reported in patent US20210349082A1, “ANALYSIS INSTRUMENT” (First Light Diagnostics, Inc., priority 2018, published 2021).
Read-outs that look alike come from different tables or passages of the source.

Legend:
[1] = test system: K. pneumonaie strain in clinical urine sample BIUR0084; test: Automated MultiPath AST cartridge on clinical urine sample; assay type: cell-based; settings: clinical urine sample BIUR0084 (K. pneumoniae); 2 antibiotic concentrations; 4 h growth; fold growth value of 2
P. aeruginosa = settings: cited from earlier work

| Compound | sensitive/resistant call by MulitPath [1] | previously determined antibiotic resistance (P. aeruginosa; P. aeruginosa ATCC 27853) | previously determined antibiotic resistance (P. aeruginosa; P. aeruginosa CDC0105) | previously determined antibiotic resistance (P. aeruginosa; P. aeruginosa CDC0111) | previously determined antibiotic resistance (P. aeruginosa; P. aeruginosa CDC0232) | previously determined antibiotic resistance (P. aeruginosa; P. aeruginosa CDC0242) | previously determined antibiotic resistance (P. aeruginosa; P. aeruginosa CDC0247) | previously determined antibiotic resistance (P. aeruginosa; P. aeruginosa CDC0251) | previously determined antibiotic resistance (P. aeruginosa; P. aeruginosa CDC0253) | previously determined antibiotic resistance (P. aeruginosa; P. aeruginosa CDC0259) | previously determined antibiotic resistance (P. aeruginosa; P. aeruginosa CDC0261) | previously determined antibiotic resistance (P. aeruginosa; P. aeruginosa CDC0262) |
| --- | --- | --- | --- | --- | --- | --- | --- | --- | --- | --- | --- | --- |
| Cc1nnc(SCC2=C(C(=O)O)N3C(=O)[C@@H](NC(=O)Cn4cnnn4)[C@H]3SC2)s1 [Cefazolin] | resistant |  |  |  |  |  |  |  |  |  |  |  |
| Trimethoprim/Sulfamethoxazole | resistant | Intrinsically | Intrinsically | Intrinsically | Intrinsically | Intrinsically | Intrinsically | Intrinsically | Intrinsically | Intrinsically | Intrinsically | Intrinsically |
